Data from publication PMC12118337, “Development of a Peptide Inhibitor Targeting the C‐SH2 Domain of the SHP2 Phosphatase” (Chembiochem, 2025).
Residues, ends and D or L forms follow the SMILES beside them. *: point of attachment. 5FAM = O=C1OC2(c3ccc(O)cc3Oc3cc(O)ccc32)c2ccc(C(=O)*)cc21; X1 = O=C(O)C(C(=O)O)*

Target: T1, SHP2 PTP domain (Homo sapiens, UniProt Q06124)
T1 construct: SHP2 N-SH2 domain (1–105), C-SH2 domain (106–220), PTP domain (224–541) and; His6 (pETM22 vector) (N, cleaved yes); made in house; host or cells: E. coli BL21(DE3) Tuner
T1 sequence (Q06124 224-541): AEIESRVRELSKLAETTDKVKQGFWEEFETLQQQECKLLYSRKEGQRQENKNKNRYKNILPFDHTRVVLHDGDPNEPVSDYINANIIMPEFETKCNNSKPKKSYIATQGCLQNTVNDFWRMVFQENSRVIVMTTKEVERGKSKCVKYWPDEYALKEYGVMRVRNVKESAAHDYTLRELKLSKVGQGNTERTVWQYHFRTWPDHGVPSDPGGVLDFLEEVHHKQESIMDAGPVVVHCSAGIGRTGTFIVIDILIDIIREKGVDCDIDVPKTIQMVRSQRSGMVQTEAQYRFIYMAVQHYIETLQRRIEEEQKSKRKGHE
Test: FP binding assay, SHP2 PTP domain
Details: 100 nM peptide, increasing C-SH2, N-SH2 or PTP domain
Method: buffer and stored in 5 mL binding buffer at 4°C. His-tagged 3C protease (0.5 mg; EMBL) was added to the pooled eluted fractions and dialysed using Spectra Por Dialysis Tubing (MWCO 6-8 kDa, 23 mm; Spectrum Labs) in 1 L of binding buffer at 4°C for 3 hours, then overnight in fresh buffer. A new column was prepared by loading 2 mL Ni-NTA Agarose (Invitrogen) as a 50% slurry in EtOH. The column was washed with 10 mL H2O to remove the EtOH and equilibrated with 10 mL binding buffer. The protein/3C protease mixture was loaded onto the column and incubated for 1 hour at 4°C on a rocker. […] Protein purification was monitored by SDS-PAGE using NuPAGE 4-12% Bis-Tris Protein Gels (Invitrogen) run in MOPS buffer (50 mM MOPS, 50 mM Tris-HCl pH 7.7, 1 mM EDTA, 0.1% SDS) followed by Coomassie staining using Coomassie Brilliant Blue (Roth). […]
4. Fluorescence polarization
Fluorescence polarization (FP) was used to measure the binding of FAM-labelled peptides to the SHP2 C-SH2, SHP2 N-SH2, SHP2 PTP, CSK SH2 or Src SH2 domains. […]
concentration of 100 nM in a final volume of 200 µL. […] The FP was immediately measured on a Synergy H1 Microplate Reader (BioTek) with the excitation and emission monitored at 485 nm and 528 nm, respectively, over 30 minutes. FP values were automatically calculated by the Gen5 3.03 (BioTek) software associated with the microplate reader. […]

CC[C@H](C)[C@H](NC(=O)[C@@H](NC(=O)[C@H](C)NC(=O)[C@H](Cc1ccc(OC(C(=O)O)C(=O)O)cc1)NC(=O)[C@H](CCC(=O)O)NC(=O)[C@@H](NC(=O)[C@H](CCC(N)=O)NC(=O)c1ccc2c(c1)C(=O)OC21c2ccc(O)cc2Oc2cc(O)ccc21)[C@@H](C)O)[C@@H](C)O)C(=O)N[C@@H](CCCCN)C(=O)N[C@@H](Cc1c[nH]cn1)C(=O)N1CCC[C@H]1C(N)=O [peptide 26] (5FAM-QTEY(X1)ATIKHP-NH2)
binding selectivity for C‐SH2 over N‐SH2 and PTP domains: maintained binding selectivity
